According to patent US12180252B2, “Peptide derived from PEP27 peptide and uses thereof” (priority 2021, dated 2024):
Values after ≈ are worked out from the molar mass of the structure shown. Where two headings read alike, the source gives them in different places. Values belong to the compound of their own block, whether it stands above or below them. Where a SMILES comes first, the peptide text is derived from it.

Columns and labels:
S. aureus CCARM3089 = test: microbe, parasite or virus in culture; details: for MIC: Staphylococcus aureus, CCARM3089, 18 h, read-out: Minimal inhibitory concentration
Experimental: (§1) In order to evaluate the antimicrobial activity of the peptides prepared by the method of above 1, a minimal inhibitory concentration (MIC) value as the minimum concentration of a peptide, in which cells are not divided, was measured.
(§2) Specifically, the strains shown in Table 3 below were purchased, cultured in a medium having a constitutional composition suitable for each strain to a mid-log phase, and then diluted to a concentration of 2×10^4 cells/100 μl to prepare the product on a micro-titration plate (Nunc, USA). Then, PEP27, PEP27-1, PEP27-2 or PEP27-5 peptide synthesized in the above 1 was added to each well by serial dilution ½ times, followed by incubation at 37° C. for 18 hours.
(§3) Specifically, subject strains were prepared by the method of above 2, and were treated with the antibiotics, that is, meropenem, ceftazidime, ceftriaxone or vancomycin, respectively, followed by determining MICs of the antibiotics.

S. aureus CCARM3090 = test: microbe, parasite or virus in culture; details: for MIC: Staphylococcus aureus, CCARM3090, 18 h, read-out: Minimal inhibitory concentration
Experimental: as §1, §2, §3

S. aureus CCARM3518 = test: microbe, parasite or virus in culture; details: for MIC: Staphylococcus aureus, CCARM3518, 18 h, read-out: Minimal inhibitory concentration
Experimental: as §1, §2, §3

S. aureus ATCC25923 = test: microbe, parasite or virus in culture; details: ATCC25923, 18 h; for MIC: Staphylococcus aureus, read-out: Minimal inhibitory concentration
Experimental: as §1, §2, §3

P. aeruginosa ATCC27853 = test: microbe, parasite or virus in culture; details: ATCC27853, 18 h; for MIC: Pseudomonas aeruginosa, read-out: Minimal inhibitory concentration
Experimental: as §1, §2, §3

S. aureus USA300 = test: microbe, parasite or virus in culture; details: for MIC: Staphylococcus aureus, USA300, 18 h, read-out: Minimal inhibitory concentration
Experimental: as §1, §2, §3

P. aeruginosa ATCC15692 = test: microbe, parasite or virus in culture; details: ATCC15692, 18 h; for MIC: Pseudomonas aeruginosa, read-out: Minimal inhibitory concentration
Experimental: as §1, §2, §3

P. aeruginosa 4891 = test: microbe, parasite or virus in culture; details: for MIC: Pseudomonas aeruginosa, 4891, 18 h, read-out: Minimal inhibitory concentration
Experimental: as §1, §2, §3

S. aureus ATCC29213 = test: microbe, parasite or virus in culture; details: ATCC29213, 18 h; for MIC: Staphylococcus aureus, read-out: Minimal inhibitory concentration
Experimental: as §1, §2, §3

P. aeruginosa 4007 = test: microbe, parasite or virus in culture; details: for MIC: Pseudomonas aeruginosa, 4007, 18 h, read-out: Minimal inhibitory concentration
Experimental: as §1, §2, §3

S. aureus MW2 = test: microbe, parasite or virus in culture; details: for MIC: Staphylococcus aureus, MW2, 18 h, read-out: Minimal inhibitory concentration
Experimental: as §1, §2, §3

L. monocytogens KCTC3710 = type: cell-based, Listeria monocytogenes; details: KCTC3710, 18 h
Experimental: as §1, §2

[1] = system: red blood cells of a rat (Balb/c); details: 37° C., 1 hour
Experimental: In order to compare the cytotoxicity of the peptides prepared by the method of above 1, erythrocyte hemolytic activity of each of the synthesized peptides was measured.
Specifically, red blood cells of a rat (Balb/c, 6 weeks old, female) were diluted with PBS (pH 7.0) to a concentration of 8%, and PEP27, PEP27-1, PEP27-2 and PEP27-5 peptides were used for treatment of the cells at concentrations of 3.13, 6.25, 12.5, 25.01 50.0 and 100.0 μM/well, respectively, followed by reaction at 37° C. for 1 hour. Then, an amount of hemoglobin contained in the supernatant obtained by centrifugation at 1,000×g was determined by measuring the absorbance at a wavelength of 414 nm. As a control which is a standard for the degree of cell destruction, the absorbance of the obtained supernatant was measured after treatment using 1% Triton X-100 (Sigma, USA) and reaction at 37° C. for 1 hour. With reference to 100% erythrocytes hemolysis activity, hemolysis of each peptide was calculated from the measured absorbance using Equation 1 below. Erythrocyte destruction ability (%)=(Absorbance A−Absorbance B)/(Absorbance C−Absorbance B)×100 [Equation 1]
(wherein, absorbance A represents the absorbance of a reaction solution treated with each peptide measured at a wavelength of 414 nm; absorbance B represents the absorbance of a reaction solution treated with PBS measured at a wavelength of 414 nm; and absorbance C represents the absorbance of a reaction solution treated with 1% Triton X-100 measured at a wavelength of 414 nm).

[2] = system: Sa. typhimurium CCARM8007; type: cell-based, Salmonella typhimurium; details: Sa. typhimurium CCARM8007, antibiotics-tolerant; 37° C., 18 hours
Experimental: as §1, §2

Sa. typhimurium KCTC1926 = type: cell-based, Salmonella typhimurium; details: KCTC1926, 18 h
Experimental: as §1, §2

[3] = system: Sa. typhimurium CCARM8009; type: cell-based, Salmonella typhimurium; details: Sa. typhimurium CCARM8009, antibiotics-tolerant; 37° C., 18 hours
Experimental: as §1, §2

B. subtilis KCTC1998 = type: cell-based, Bacillus subtilis; details: KCTC1998, 18 h
Experimental: as §1, §2

E. coli CCARM1229 = type: cell-based, Escherichia coli; details: E. coli CCARM1229, antibiotics-tolerant; 37° C., 18 hours
Experimental: as §1, §2

E. coli ATCC27325 = type: cell-based, Escherichia coli; details: ATCC27325, 18 h
Experimental: as §1, §2

E. coli CCARM1238 = type: cell-based, Escherichia coli; details: E. coli CCARM1238, antibiotics-tolerant; 37° C., 18 hours
Experimental: as §1, §2

E. coli ATCC25922 = type: cell-based, Escherichia coli; details: ATCC25922, 18 h
Experimental: as §1, §2

HaCaT and MCF-7 cells = test: MTT cytotoxicity; type: cell-based, human; details: 100 μM, 24 h, MTT, HaCaT and MCF-7 cells
Experimental: Specifically, Thiazolyl blue tetrazolium bromide (MTT, Merck KGaA) was used to determine the cytotoxicity of PEP27 and its analogs against HaCaT (human keratinocyte […], n=4 per condition) and MCF-7 (human breast adenocarcinoma, n=3 per condition) cells. The cells were cultured in Dulbecco's modified Eagle's medium (DMEM) supplemented with 10 heat-inactivated fetal bovine serum (FBS, Gibco, Grand Island, NY, USA) and 1% penicillin-streptomycin (Gibco) at a density of 2×10^4 cells/well (96-well plate). Peptides were then added at various concentrations and incubated for 24 h at 37° C., after which MTT (final concentration, 0.5 mg/mL) was added to each well and incubated for 4 h. The formazan product was solubilized in DMSO, and the absorbance at 570 nm was measured to […] cytotoxicity. Cells treated with 0.1% Triton X-100 were used as the 100% cytotoxic control sample.

MIC (S. aureus CCARM3089): 512 µM (≈ 280 µg/mL)
MIC (S. aureus CCARM3090): 512 µM (≈ 280 µg/mL)
MIC (S. aureus CCARM3518): 64 µM (≈ 35 µg/mL)
MIC (S. aureus ATCC25923): 16 µM (≈ 8.75 µg/mL)
MIC (P. aeruginosa ATCC27853): 2 µM (≈ 1.09 µg/mL)
MIC (S. aureus USA300): 32 µM (≈ 17.5 µg/mL)
MIC (P. aeruginosa ATCC15692): 4 µM (≈ 2.19 µg/mL)
MIC (P. aeruginosa 4891): 16 µM (≈ 8.75 µg/mL)
MIC (S. aureus ATCC29213): 3 µM (≈ 1.64 µg/mL)
MIC (P. aeruginosa 4007): 16 µM (≈ 8.75 µg/mL)
MIC (S. aureus MW2): 32 µM (≈ 17.5 µg/mL)
SMILES: CC(C)(O/N=C(\C(=O)N[C@@H]1C(=O)N2C(C(=O)[O-])=C(C[n+]3ccccc3)CS[C@H]12)c1csc(N)n1)C(=O)O [Ceftazidime, ceftazidime]

SMILES: CN[C@H](CC(C)C)C(=O)N[C@H]1C(=O)N[C@@H](CC(N)=O)C(=O)N[C@H]2C(=O)N[C@H]3C(=O)N[C@H](C(=O)N[C@H](C(=O)O)c4cc(O)cc(O)c4-c4cc3ccc4O)[C@H](O)c3ccc(c(Cl)c3)Oc3cc2cc(c3O[C@@H]2O[C@H](CO)[C@@H](O)[C@H](O)[C@H]2O[C@H]2C[C@](C)(N)[C@H](O)[C@H](C)O2)Oc2ccc(cc2Cl)[C@H]1O [Vancomycin, vancomycin]
MIC (S. aureus CCARM3089): 0.25 µM (≈ 0.362 µg/mL)
MIC (S. aureus CCARM3090): 0.5 µM (≈ 0.725 µg/mL)
MIC (S. aureus CCARM3518): 0.25 µM (≈ 0.362 µg/mL)
MIC (S. aureus ATCC25923): 0.25 µM (≈ 0.362 µg/mL)
MIC (P. aeruginosa ATCC27853): 256 µM (≈ 371 µg/mL)
MIC (S. aureus USA300): 0.25 µM (≈ 0.362 µg/mL)
MIC (P. aeruginosa ATCC15692): 512 µM (≈ 742 µg/mL)
MIC (P. aeruginosa 4891): 512 µM (≈ 742 µg/mL)
MIC (S. aureus ATCC29213): 0.25 µM (≈ 0.362 µg/mL)
MIC (P. aeruginosa 4007): 512 µM (≈ 742 µg/mL)
MIC (S. aureus MW2): 0.25 µM (≈ 0.362 µg/mL)

MIC (S. aureus CCARM3089): 64 µM (≈ 24.5 µg/mL)
MIC (S. aureus CCARM3090): 128 µM (≈ 49.1 µg/mL)
MIC (S. aureus CCARM3518): 64 µM (≈ 24.5 µg/mL)
MIC (S. aureus ATCC25923): 2 µM (≈ 0.767 µg/mL)
MIC (P. aeruginosa ATCC27853): 2 µM (≈ 0.767 µg/mL)
MIC (S. aureus USA300): 2 µM (≈ 0.767 µg/mL)
MIC (P. aeruginosa ATCC15692): 2 µM (≈ 0.767 µg/mL)
MIC (P. aeruginosa 4891): 8 µM (≈ 3.07 µg/mL)
MIC (S. aureus ATCC29213): 2 µM (≈ 0.767 µg/mL)
MIC (P. aeruginosa 4007): 4 µM (≈ 1.53 µg/mL)
MIC (S. aureus MW2): 2 µM (≈ 0.767 µg/mL)
SMILES: C[C@@H](O)[C@H]1C(=O)N2C(C(=O)O)=C(S[C@@H]3CN[C@H](C(=O)N(C)C)C3)[C@H](C)[C@H]12 [Meropenem, meropenem]

SMILES: CSCC[C@H](N)C(=O)N[C@@H](Cc1c[nH]c2ccccc12)C(=O)N[C@@H](CCCCN)C(=O)N[C@@H](Cc1c[nH]c2ccccc12)C(=O)N[C@@H](Cc1ccccc1)C(=O)N[C@@H](Cc1c[nH]cn1)C(=O)N[C@@H](CC(N)=O)C(=O)N[C@H](C(=O)N[C@@H](CC(C)C)C(=O)N[C@@H](CO)C(=O)N[C@@H](CO)C(=O)NCC(=O)N[C@@H](CCC(N)=O)C(=O)N[C@@H](CC(C)C)C(=O)N[C@@H](CC(C)C)C(=O)N[C@@H](C)C(=O)N[C@@H](CC(=O)O)C(=O)N[C@@H](CCCCN)C(=O)N[C@@H](CCCNC(=N)N)C(=O)N1CCC[C@H]1C(=O)N[C@@H](C)C(=O)N[C@@H](CCCNC(=N)N)C(=O)N[C@@H](CC(=O)O)C(=O)N[C@@H](Cc1ccc(O)cc1)C(=O)N[C@@H](CC(N)=O)C(=O)N[C@@H](CCCNC(=N)N)C(=O)N[C@@H](CCCCN)C(N)=O)C(C)C [PEP27-1] (H-MWKWFHNVLSSGQLLADKRPARDYNRK-NH2)
Minimal inhibitory concentration (L. monocytogens KCTC3710): 64 µM (≈ 212 µg/mL)
Erythrocyte destruction ability ([1]; Peptide concentration 3.13 μM): 0%
Erythrocyte destruction ability ([1]; Peptide concentration 6.25 μM): 1.05%
Erythrocyte destruction ability ([1]; Peptide concentration 12.5 μM): 1.97%
Erythrocyte destruction ability ([1]; Peptide concentration 25 μM): 25.75%
Erythrocyte destruction ability ([1]; Peptide concentration 50 μM): 44.51%
Erythrocyte destruction ability ([1]; Peptide concentration 100 μM, 100% = 1% Triton X-100): 50.65%
Minimal inhibitory concentration [2]: 32 µM (≈ 106 µg/mL)
Minimal inhibitory concentration (Sa. typhimurium KCTC1926): 32 µM (≈ 106 µg/mL)
Minimal inhibitory concentration [3]: 32 µM (≈ 106 µg/mL)
Minimal inhibitory concentration (B. subtilis KCTC1998): 32 µM (≈ 106 µg/mL)
Minimal inhibitory concentration (E. coli CCARM1229): 32 µM (≈ 106 µg/mL)
Minimal inhibitory concentration (E. coli ATCC27325): 32 µM (≈ 106 µg/mL)
Minimal inhibitory concentration (E. coli CCARM1238): 32 µM (≈ 106 µg/mL)
Minimal inhibitory concentration (E. coli ATCC25922): 64 µM (≈ 212 µg/mL)
cell viability (HaCaT and MCF-7 cells): 41%-42%
Minimal inhibitory concentration (S. aureus CCARM3089; S. aureus CCARM3089, antibiotics-tolerant, 37° C., 18 hours): 32 µM (≈ 106 µg/mL)
Minimal inhibitory concentration (S. aureus CCARM3090; S. aureus CCARM3090, antibiotics-tolerant, 37° C., 18 hours): 16 µM (≈ 53.1 µg/mL)
Minimal inhibitory concentration (S. aureus CCARM3518; S. aureus CCARM3518, antibiotics-tolerant, 37° C., 18 hours): 32 µM (≈ 106 µg/mL)
Minimal inhibitory concentration (S. aureus ATCC25923): 32 µM (≈ 106 µg/mL)
Minimal inhibitory concentration (P. aeruginosa ATCC27853): 32 µM (≈ 106 µg/mL)
Minimal inhibitory concentration (S. aureus USA300; S. aureus USA300, antibiotics-tolerant, 37° C., 18 hours): 32 µM (≈ 106 µg/mL)
Minimal inhibitory concentration (P. aeruginosa ATCC15692): 32 µM (≈ 106 µg/mL)
Minimal inhibitory concentration (P. aeruginosa 4891; 4891, 18 h): 32 µM (≈ 106 µg/mL)
Minimal inhibitory concentration (S. aureus ATCC29213): 32 µM (≈ 106 µg/mL)
Minimal inhibitory concentration (P. aeruginosa 4007; 4007, 18 h): 32 µM (≈ 106 µg/mL)
Minimal inhibitory concentration (S. aureus MW2; S. aureus MW2, antibiotics-tolerant, 37° C., 18 hours): 32 µM (≈ 106 µg/mL)
